Data from US8916567B2, “Certain crystalline hydrates, pharmaceutical compositions thereof and methods for preparation and use thereof” (Universal Technology Alliance, Inc., priority 2009, dated 2014).

How the values were obtained:
Staphylococcus aureus = assay: Minimum inhibitory concentration (MIC) in vitro, agar dilution method, quality control strain; assay type: cell-based; conditions: strain S. AT C C25923 (Table 7 No. 1); hydrate
Excerpt: Hydrates Samples: • The 1/2 hydrates prepared according to Example 2; • Content (purity % wt): 99.0%; • The 1/12 hydrates prepared according to Example 253; • Content (purity % wt): 98.9%; • The 2/7 hydrates prepared according to Example 106; • Content (purity % wt): 98.8%; • The 2/5 hydrates prepared according to Example 162; • Content (purity % wt): 99.0%; • The 3/4 hydrates prepared according to Example 337; • Content (purity % wt): 98.8%; • Preparation: dissolved in DMSO, and further diluted with sterile distilled water to desired concentration. • The hydrates samples were supplied by Sichuan Beilike Biotechnology LTD.
Anhydrous Sample: • The anhydrous compounds prepared according to Example 1. • Content (purity % wt): 98.6%; • Preparation: dissolved in DMSO, and further diluted with sterile distilled water to desired concentration; • The anhydrous sample was supplied by Sichuan Beilike Biotechnology LTD.
Control Samples • Vancomycin: provided by Sichuan Beilike Biotechnology LTD, purchased from Eli Lilly Japan K.K. • Lot No.: WM16151 (production date: Apr. 10, 2007, expiration date: Apr. 9, 2009). • Specification: 500 mg/bottle; solubility (physicochemical properties): soluble in water. • Linezolid (LZ): provided by Sichuan Beilike Biotechnology LTD.
Bacteria Strains • Clinically isolated strains: clinically isolated bacterial pathogens collected in Sichuan and Beijing areas from March 2007 to May 2008. • Species include: Staphylococcus aureus MRSA, Staphylococcus aureus MSSA, S. epidermidis MRSE, S. epidermidis MSSE, E. feacalis, and E. feacium, a total of 51 strains. • Quality control strains: Staphylococcus aureus […] strain kept in Sichuan Industrial Institute of Antibiotics, purchased from the medical testing center of the Ministry of Health, China.
Experimental Method: • Measurement of the minimum inhibitory concentration (MIC) in vitro: • The minimum inhibitory concentration (MIC) of each test sample against test strains was measured by using the agar dilution method recommended by the U.S. National Committee for Clinical Laboratory Standards (CLSI/NCCIs).
Based on the CLSI/NCCL's testing standard with respect to vancomycin and linezolid (see Table 6), the minimum inhibitory concentration (MIC) values of every strain were reported, and the MIC50 (the concentration that inhibits 50% of the different strains of bacteria), MIC90 (the concentration that inhibits 90% of the different strains of bacteria), and MICrange (the range of the MIC value of the tested strains) were observed.

[1] = Solubility in different solvents according to Chinese Pharmacopeia (2005 edition); assay type: physicochemical; conditions: for Result: at the given solute:solvent ratio
Description: The solubility of the (S)—[N-3-(3′-fluoro-4′-(4″-phenylpiperazinyl))phenyl-2-oxo-5-oxazolelidinyl]methylacetamide hydrates was tested with different solvents, and the test results are shown in Tables 15-19. The solubility was measured according to Chinese Pharmacopeia (2005 edition).

[2] = system: Staphylococcus aureus MSSA; assay: Minimum inhibitory concentration (MIC) in vitro, agar dilution method; assay type: cell-based; conditions: hydrate
Summary of the method: (§1)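 CLSI agar dilution; clinical isolates, Sichuan/Beijing, Mar 2007–May 2008. Stock in DMSO, diluted with sterile water. Read-out: MIC per strain, summarised as MIC50/MIC90/range.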

E. feacium = assay: as above; assay type: cell-based; conditions: hydrate
Summary of the method: as §1

S. epidermidis MSSE = assay: as above; assay type: cell-based; conditions: hydrate
Summary of the method: as §1

E. feacalis = assay: as above; assay type: cell-based; conditions: hydrate
Summary of the method: as §1

[3] = system: Staphylococcus aureus MRSA; assay: as above; assay type: cell-based; conditions: hydrate
Summary of the method: as §1

S. epidermidis MRSE = assay: as above; assay type: cell-based; conditions: hydrate
Summary of the method: as §1

[4] = S. MSSA (11 strains), clinically isolated
[5] = E. feacium (5 strains), clinically isolated
[6] = S. ep MSSE (10 strains), clinically isolated
[7] = E. feacalis (5 strains), clinically isolated
[8] = S. MRSA (10 strains), clinically isolated
[9] = S. ep MRSE (10 strains), clinically isolated

## CC(=O)NC[C@H]1CN(c2ccc(N3CCN(c4ccccc4)CC3)c(F)c2)C(=O)O1 [1/12 hydrate, (S)—[N-3-(3′-fluoro-4′-(4″-phenylpiperazinyl))phenyl-2-oxo-5-oxazolidinyl]methyl acetamide 1/12 hydrate]
Staphylococcus aureus
  MIC: 0.5 µg/mL
[1]; different solvents
  Solubility compared with the anhydride: sometimes more soluble than the anhydride
[1]; solvent 0.1N Hydrochloric acid
  Result: Dissolved
[1]; solvent 0.1N Sodium hydroxide
  Result: Insoluble
[1]; solvent Acetonitrile
  Result: Dissolved
[1]; solvent Ethanol
  Result: Dissolved
[1]; solvent Methanol
  Result: Dissolved
[1]; solvent Water, hydrate
  Result: Dissolved
[2]; [4]
  MIC50: 0.5 µg/mL
  MIC90: 0.5 µg/mL
  MICrange: 0.25 to 0.5 µg/mL
[2]; strain S. MSSA 123 (Table 7 No. 3)
  MIC: 0.5 µg/mL
[2]; strain S. MSSA 187 (Table 7 No. 7)
  MIC: 0.5 µg/mL
[2]; strain S. MSSA 195 (Table 7 No. 6)
  MIC: 0.5 µg/mL
[2]; strain S. MSSA 195 (Table 7 No. 12)
  MIC: 0.5 µg/mL
[2]; strain S. MSSA 201 (Table 7 No. 11)
  MIC: 0.25 µg/mL
[2]; strain S. MSSA 232 (Table 7 No. 2)
  MIC: 0.5 µg/mL
[2]; strain S. MSSA 275 (Table 7 No. 10)
  MIC: 1 µg/mL
[2]; strain S. MSSA 466 (Table 7 No. 8)
  MIC: 0.25 µg/mL
[2]; strain S. MSSA 519 (Table 7 No. 9)
  MIC: 0.5 µg/mL
[2]; strain S. MSSA 520 (Table 7 No. 4)
  MIC: 0.5 µg/mL
[2]; strain S. MSSA 580 (Table 7 No. 5)
  MIC: 0.25 µg/mL
E. feacium; [5]
  MIC50: 0.5 µg/mL
  MIC90: 1 µg/mL
  MICrange: 0.25 to 1 µg/mL
E. feacium; strain Efm 98 (Table 8 No. 21)
  MIC: 0.25 µg/mL
E. feacium; strain Efm 171 (Table 8 No. 25)
  MIC: 0.5 µg/mL
E. feacium; strain Efm 197 (Table 8 No. 22)
  MIC: 0.5 µg/mL
E. feacium; strain Efm N3 (Table 8 No. 23)
  MIC: 1 µg/mL
E. feacium; strain Efm N4 (Table 8 No. 24)
  MIC: 0.5 µg/mL
S. epidermidis MSSE; [6]
  MIC50: 0.25 µg/mL
  MIC90: 0.5 µg/mL
  MICrange: 0.125 to 0.5 µg/mL
S. epidermidis MSSE; strain S. ep MSSE87 (Table 7 No. 23)
  MIC: 0.125 µg/mL
S. epidermidis MSSE; strain S. ep MSSE88 (Table 8 No. 5)
  MIC: 0.5 µg/mL
S. epidermidis MSSE; strain S. ep MSSE113 (Table 7 No. 24)
  MIC: 0.25 µg/mL
S. epidermidis MSSE; strain S. ep MSSE116 (Table 7 No. 25)
  MIC: 0.125 µg/mL
S. epidermidis MSSE; strain S. ep MSSE118 (Table 8 No. 2)
  MIC: 0.5 µg/mL
S. epidermidis MSSE; strain S. ep MSSE119 (Table 7 No. 27)
  MIC: 0.125 µg/mL
S. epidermidis MSSE; strain S. ep MSSE137 (Table 8 No. 4)
  MIC: 0.5 µg/mL
S. epidermidis MSSE; strain S. ep MSSE140 (Table 8 No. 3)
  MIC: 0.5 µg/mL
S. epidermidis MSSE; strain S. ep MSSE142 (Table 7 No. 26)
  MIC: 0.5 µg/mL
S. epidermidis MSSE; strain S. ep MSSE153 (Table 8 No. 1)
  MIC: 0.5 µg/mL
E. feacalis; [7]
  MIC50: 0.125 µg/mL
  MIC90: 0.25 µg/mL
  MICrange: 0.06 to 0.25 µg/mL
E. feacalis; strain Efa 116 (Table 8 No. 16)
  MIC: 0.25 µg/mL
E. feacalis; strain Efa 907 (Table 8 No. 19)
  MIC: 0.06 µg/mL
[3]; [8]
  MIC50: 0.5 µg/mL
  MIC90: 0.5 µg/mL
  MICrange: 0.25 to 0.5 µg/mL
[3]; strain S. MRSA 29 (Table 7 No. 15)
  MIC: 1 µg/mL
[3]; strain S. MRSA 101 (Table 7 No. 14)
  MIC: 0.5 µg/mL
[3]; strain S. MRSA 201 (Table 7 No. 13)
  MIC: 0.5 µg/mL
[3]; strain S. MRSA B27 (Table 7 No. 21)
  MIC: 0.5 µg/mL
[3]; strain S. MRSA B105 (Table 7 No. 17)
  MIC: 0.5 µg/mL
[3]; strain S. MRSA B143 (Table 7 No. 19)
  MIC: 0.5 µg/mL
[3]; strain S. MRSA B151 (Table 7 No. 20)
  MIC: 0.5 µg/mL
[3]; strain S. MRSA B164 (Table 7 No. 16)
  MIC: 0.5 µg/mL
[3]; strain S. MRSA B199 (Table 7 No. 22)
  MIC: 1 µg/mL
[3]; strain S. MRSA B617 (Table 7 No. 18)
  MIC: 0.25 µg/mL
S. epidermidis MRSE; [9]
  MIC50: 0.25 µg/mL
  MIC90: 0.5 µg/mL
  MICrange: 0.06 to 0.5 µg/mL
S. epidermidis MRSE; strain S. ep MRSE4 (Table 8 No. 9)
  MIC: 0.125 µg/mL
S. epidermidis MRSE; strain S. ep MRSE20 (Table 8 No. 6)
  MIC: 0.25 µg/mL
S. epidermidis MRSE; strain S. ep MRSE87 (Table 8 No. 13)
  MIC: 0.25 µg/mL
S. epidermidis MRSE; strain S. ep MRSE90 (Table 8 No. 10)
  MIC: 0.125 µg/mL
S. epidermidis MRSE; strain S. ep MRSE101 (Table 8 No. 7)
  MIC: 0.06 µg/mL
S. epidermidis MRSE; strain S. ep MRSE105 (Table 8 No. 11)
  MIC: 0.25 µg/mL
S. epidermidis MRSE; strain S. ep MRSE140 (Table 8 No. 14)
  MIC: 0.5 µg/mL
S. epidermidis MRSE; strain S. ep MRSE142 (Table 8 No. 12)
  MIC: 0.25 µg/mL
S. epidermidis MRSE; strain S. ep MRSE210 (Table 8 No. 15)
  MIC: 0.25 µg/mL
S. epidermidis MRSE; strain S. ep MRSE211 (Table 8 No. 8)
  MIC: 0.25 µg/mL
